According to ChEMBL document CHEMBL1153189, “The comparative antimalarial properties of weak base and neutral synthetic ozonides” (Bioorg Med Chem Lett, 2010):
Converted amounts (≈) assume the structure as drawn.

Key:
Plasmodium falciparum [1] = assay: Antimalarial activity against chloroquine-resistant Plasmodium falciparum K1; type: functional, organism-based
Plasmodium falciparum [2] = assay: Antimalarial activity against chloroquine-sensitive Plasmodium falciparum NF54; type: functional, organism-based
Plasmodium berghei [3] = assay: Antimalarial activity against Plasmodium berghei infected in NMRI mice (Mus musculus) assessed as reduction in parasitaemia at 10 mg/kg, perorally administered 1 day post infection; type: functional; set-up: scale not given: the % may be the effect or the level left; conditions: route oral
Plasmodium berghei [4] = assay: Antimalarial activity against Plasmodium berghei infected in NMRI mice (Mus musculus) assessed as cure rat at 3 mg/kg, perorally administered for 3 days post infection measured after 30 days; type: functional; conditions: route oral
[5] = (§1) Half life in Sprague-Dawley rat at 10 mg/kg, iv; type: ADME, organism-based; set-up: dose 10 mg/kg, route intravenous; conditions: Sprague-Dawley, in vivo
[6] = (§2) Volume of distribution in Sprague-Dawley rat at 10 mg/kg, iv; type: ADME, organism-based; set-up: dose 10 mg/kg, route intravenous; conditions: Sprague-Dawley, in vivo
[7] = Blood clearance in Sprague-Dawley rat at 10 mg/kg, iv; type: ADME, organism-based; set-up: dose 10 mg/kg, route intravenous; conditions: whole blood
Plasmodium berghei [8] = assay: Antimalarial activity against Plasmodium berghei infected in NMRI mice (Mus musculus) assessed as survival time at 3 mg/kg, perorally administered for 3 days post infection; type: functional; conditions: route oral
Plasmodium berghei [9] = assay: Antimalarial activity against Plasmodium berghei infected in NMRI mice (Mus musculus) assessed as reduction in parasitaemia at 3 mg/kg, perorally administered for 3 days post infection; type: functional; set-up: scale not given: the % may be the effect or the level left; conditions: route oral
Rattus norvegicus [10] = assay: as §1; type: ADME, organism-based; set-up: dose 10 mg/kg, route intravenous; conditions: in vivo
Rattus norvegicus [11] = assay: as §2; type: ADME, organism-based; set-up: dose 10 mg/kg, route intravenous; conditions: in vivo
[12] = Oral bioavailability in Sprague-Dawley rat at 10 mg/kg; type: ADME, organism-based; conditions: in vivo
Cytochrome P450 2D6 [13] = target: T1, Cytochrome P450 2D6 (Homo sapiens, UniProt P10635); assay: Inhibition of CYP2D6; type: ADME
T1 sequence (P10635 whole entry): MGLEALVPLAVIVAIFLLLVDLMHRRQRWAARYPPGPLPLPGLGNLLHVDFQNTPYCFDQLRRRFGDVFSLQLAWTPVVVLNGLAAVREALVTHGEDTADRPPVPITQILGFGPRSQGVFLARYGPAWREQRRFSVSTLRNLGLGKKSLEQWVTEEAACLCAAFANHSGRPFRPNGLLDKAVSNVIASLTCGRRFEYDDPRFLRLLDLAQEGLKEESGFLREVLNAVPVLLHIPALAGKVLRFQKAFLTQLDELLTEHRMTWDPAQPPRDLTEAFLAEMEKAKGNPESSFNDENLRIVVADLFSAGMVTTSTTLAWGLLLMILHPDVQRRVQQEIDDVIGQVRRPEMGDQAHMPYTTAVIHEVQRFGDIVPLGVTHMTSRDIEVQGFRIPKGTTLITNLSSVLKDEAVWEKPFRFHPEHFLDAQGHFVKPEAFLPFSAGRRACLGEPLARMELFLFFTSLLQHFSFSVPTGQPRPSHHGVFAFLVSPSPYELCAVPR

Cytochrome P450 3A4 [14] = target: T2, Cytochrome P450 3A4 (Homo sapiens, UniProt P08684); assay: Inhibition of CYP3A4; type: ADME
T2 sequence (P08684 whole entry): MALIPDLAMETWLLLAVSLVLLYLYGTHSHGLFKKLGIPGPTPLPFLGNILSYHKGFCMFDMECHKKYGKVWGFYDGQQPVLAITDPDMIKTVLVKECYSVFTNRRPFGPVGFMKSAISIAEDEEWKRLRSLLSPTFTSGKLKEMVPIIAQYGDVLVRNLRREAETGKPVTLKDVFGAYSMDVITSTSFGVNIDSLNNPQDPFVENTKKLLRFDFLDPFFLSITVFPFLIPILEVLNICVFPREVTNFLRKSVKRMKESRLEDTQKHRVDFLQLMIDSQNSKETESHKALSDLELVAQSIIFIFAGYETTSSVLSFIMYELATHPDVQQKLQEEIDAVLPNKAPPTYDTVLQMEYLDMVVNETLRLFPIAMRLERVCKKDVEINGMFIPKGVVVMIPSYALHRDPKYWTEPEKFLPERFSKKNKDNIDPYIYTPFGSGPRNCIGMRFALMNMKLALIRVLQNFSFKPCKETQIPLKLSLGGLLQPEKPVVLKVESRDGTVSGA

Cytochrome P450 2C9 [15] = target: T3, Cytochrome P450 2C9 (Homo sapiens, UniProt P11712); assay: Inhibition of CYP2C9; type: ADME
T3 sequence (P11712 whole entry): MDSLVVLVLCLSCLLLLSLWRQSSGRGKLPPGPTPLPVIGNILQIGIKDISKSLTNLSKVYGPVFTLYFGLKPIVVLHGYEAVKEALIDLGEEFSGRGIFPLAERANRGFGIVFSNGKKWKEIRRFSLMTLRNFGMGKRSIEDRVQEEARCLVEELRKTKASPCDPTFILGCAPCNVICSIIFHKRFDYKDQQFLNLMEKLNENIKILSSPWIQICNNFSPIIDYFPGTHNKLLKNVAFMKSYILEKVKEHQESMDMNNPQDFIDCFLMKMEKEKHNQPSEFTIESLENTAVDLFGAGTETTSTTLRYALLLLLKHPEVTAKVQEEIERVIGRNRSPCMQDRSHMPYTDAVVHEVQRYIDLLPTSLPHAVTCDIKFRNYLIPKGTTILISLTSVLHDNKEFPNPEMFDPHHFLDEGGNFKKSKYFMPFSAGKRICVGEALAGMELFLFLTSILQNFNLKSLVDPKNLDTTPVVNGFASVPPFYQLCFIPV

Cytochrome P450 2C19 = Cytochrome P450 2C19 (Homo sapiens, UniProt P33261); assay: Inhibition of CYP2C19; type: ADME
Cytochrome P450 2C19, sequence (P33261 whole entry): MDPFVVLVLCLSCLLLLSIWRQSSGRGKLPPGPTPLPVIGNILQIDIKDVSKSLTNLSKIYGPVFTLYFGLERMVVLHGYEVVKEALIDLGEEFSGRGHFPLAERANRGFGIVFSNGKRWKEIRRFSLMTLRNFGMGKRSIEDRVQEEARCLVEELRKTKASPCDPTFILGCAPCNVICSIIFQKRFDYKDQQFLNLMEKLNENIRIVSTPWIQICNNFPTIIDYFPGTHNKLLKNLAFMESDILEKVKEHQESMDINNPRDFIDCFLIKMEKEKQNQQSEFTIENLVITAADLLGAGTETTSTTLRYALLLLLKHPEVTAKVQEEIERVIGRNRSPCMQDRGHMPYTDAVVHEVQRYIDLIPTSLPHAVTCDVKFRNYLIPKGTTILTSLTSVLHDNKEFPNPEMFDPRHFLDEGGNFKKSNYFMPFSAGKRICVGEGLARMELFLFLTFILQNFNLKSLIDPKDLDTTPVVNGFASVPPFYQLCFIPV

[16] = Lipophilicity, log D at pH 7.4; type: physicochemical; conditions: buffer
in vitro = conditions: human, liver microsomes
Description: Metabolic stability in human liver microsomes assessed as hepatic extraction ratio

[17] = Plasma concentration in rat at 100 mg/kg, po after 5 days; type: ADME, organism-based; set-up: dose 100 mg/kg, route oral
Cytochrome P450 3A4 [18] = target: T2, Cytochrome P450 3A4; assay: Inhibition of CYP3A4 up to 50 uM; type: ADME
Cytochrome P450 2C9 [19] = target: T3, Cytochrome P450 2C9; assay: Inhibition of CYP2C9 up to 50 uM; type: ADME
Cytochrome P450 2D6 [20] = target: T1, Cytochrome P450 2D6; assay: Inhibition of CYP2D6 up to 50 uM; type: ADME
Rattus norvegicus [21] = assay: Plasma concentration in rat at 300 mg/kg, po after 5 days; type: ADME, organism-based; set-up: dose 300 mg/kg, route oral; conditions: in vivo, 120 h

Row | SMILES | IC50 (Plasmodium falciparum [1]) [ng/mL] | IC50 (Plasmodium falciparum [2]) [ng/mL] | Activity (Plasmodium berghei [3]) [%] | also measured
1 | NC(=O)NC[C@H]1CC[C@]2(CC1)OO[C@]1(O2)C2CC3CC(C2)CC1C3 | 0.56 (≈ 1.66 nM) | 1.6 (≈ 4.76 nM) | 98 | 
2 | O=C(NC[C@H]1CC[C@]2(CC1)OO[C@]1(O2)C2CC3CC(C2)CC1C3)c1ccccn1 |  |  | 98 | 
3 | OC(c1cc(C(F)(F)F)nc2c(C(F)(F)F)cccc12)C1CCCCN1 (configuration not stated) [MEFLOQUINE] |  |  |  | Activity (Plasmodium berghei [4]): 0%
4 | C[C@H]1[C@@H](O)O[C@@H]2O[C@@]3(C)CC[C@H]4[C@H](C)CC[C@@H]1[C@@]24OO3 [ARTENIMOL] |  |  |  | half-life [5]: 26 min; Vd [6]: 3 L/kg; clearance [7]: 72 mL/min/kg
5 | CC(=O)NC[C@H]1CC[C@]2(CC1)OO[C@]1(O2)C2CC3CC(C2)CC1C3 | 0.63 (≈ 1.88 nM) | 0.84 (≈ 2.5 nM) | 98 | 
6 | CCN(CC)CCCC(C)Nc1ccnc2cc(Cl)ccc12 (configuration not stated) [CHLOROQUINE] |  |  |  | Survival (Plasmodium berghei [8]): 9.4 days; Activity (Plasmodium berghei [4]): 0%
7 | CS(=O)(=O)O.O=C(NC[C@H]1CC[C@]2(CC1)OO[C@]1(O2)C2CC3CC(C2)CC1C3)C(=O)NC1CCNCC1 | 0.56 | 0.79 | >99.9 | Activity (Plasmodium berghei [9]): >99.9%; Survival (Plasmodium berghei [8]): 22.4 days; Activity (Plasmodium berghei [4]): 20%
8 | CN(C)C(=O)NC[C@H]1CC[C@]2(CC1)OO[C@]1(O2)C2CC3CC(C2)CC1C3 | 1.1 (≈ 3.02 nM) | 1.5 (≈ 4.12 nM) | 99.4 | 
9 | NC[C@H]1CC[C@]2(CC1)OOC1(O2)C2CC3CC(C2)CC1C3 (some centres not stated) |  |  | >99.9 | Activity (Plasmodium berghei [9]): >99.9%; Survival (Plasmodium berghei [8]): 12.8 days; Activity (Plasmodium berghei [4]): 0%; t1/2 (Rattus norvegicus [10]): 90 min; Vd (Rattus norvegicus [11]): 46 L/kg; bioavailability [12]: 31%; Activity (Cytochrome P450 2D6 [13]): Not Active; IC50 (Cytochrome P450 3A4 [14]): 9.7 µM; IC50 (Cytochrome P450 2C9 [15]): 17 µM; IC50 (Cytochrome P450 2C19): 0.11 µM; logD [16]: 2.6; hepatic extraction ratio (in vitro): 0.24
10 | Cc1ccc(S(=O)(=O)O)cc1.O=C(CN1CCS(=O)(=O)CC1)NC[C@H]1CC[C@]2(CC1)OO[C@]1(O2)C2CC3CC(C2)CC1C3 | 4.6 | 5.5 | 86 | logD [16]: 4.5
11 | NC1(C(=O)NC[C@H]2CC[C@]3(CC2)OO[C@]2(O3)C3CC4CC(C3)CC2C4)CCCC1 | 0.33 (≈ 0.816 nM) | 0.36 (≈ 0.89 nM) | 99.9 | 
12 | O=C(O)C(=O)NC[C@H]1CC[C@]2(CC1)OO[C@]1(O2)C2CC3CC(C2)CC1C3 | 58 (≈ 159 nM) | 59 (≈ 161 nM) | <40 | 
13 | Cc1ccc(S(=O)(=O)O)cc1.O=C(CNCC1CC1)NC[C@H]1CC[C@]2(CC1)OO[C@]1(O2)C2CC3CC(C2)CC1C3 | 0.36 | 1.2 |  | 
14 | NC1(C(=O)NC[C@H]2CC[C@]3(CC2)OO[C@]2(O3)C3CC4CC(C3)CC2C4)CCCCC1 | 0.24 (≈ 0.573 nM) | 0.44 (≈ 1.05 nM) | 99.9 | 
15 | O=CNCC(=O)NC[C@H]1CC[C@]2(CC1)OO[C@]1(O2)C2CC3CC(C2)CC1C3 | 0.9 (≈ 2.38 nM) |  | 98 | 
16 | CCNC(=O)NC[C@H]1CC[C@]2(CC1)OO[C@]1(O2)C2CC3CC(C2)CC1C3 |  |  | 98 | 
17 | Cc1ccc(S(=O)(=O)O)cc1.O=C(NC[C@H]1CC[C@]2(CC1)OO[C@]1(O2)C2CC3CC(C2)CC1C3)N1CCNCC1 | 0.43 | 0.68 | >99.9 | Activity (Plasmodium berghei [9]): >99.9%; Survival (Plasmodium berghei [8]): 27 days; Activity (Plasmodium berghei [4]): 40%
18 | O=C1CNC(=O)N1C[C@H]1CC[C@]2(CC1)OO[C@]1(O2)C2CC3CC(C2)CC1C3 | 1 (≈ 2.66 nM) | 2.7 (≈ 7.17 nM) | 92 | 
19 | Nc1n[nH]c(C(=O)NC[C@H]2CC[C@]3(CC2)OO[C@]2(O3)C3CC4CC(C3)CC2C4)n1 |  |  | 99.8 | 

Row | SMILES | IC50 (Plasmodium falciparum [1]) [ng/mL] | IC50 (Plasmodium falciparum [2]) [ng/mL] | Activity (Plasmodium berghei [3]) [%] | also measured
20 | Cc1ccc(S(=O)(=O)O)cc1.N[C@H]1CC[C@H](NC(=O)C(=O)NC[C@H]2CC[C@]3(CC2)OO[C@]2(O3)C3CC4CC(C3)CC2C4)CC1 | 0.7 | 1.3 | 99.9 | Activity (Plasmodium berghei [9]): >99.9%; Survival (Plasmodium berghei [8]): 25.2 days; Activity (Plasmodium berghei [4]): 40%; concentration at 120 h [17]: 3700 ng/mL; Activity (Cytochrome P450 3A4 [18]): Not Active; Activity (Cytochrome P450 2C9 [19]): Not Active; Activity (Cytochrome P450 2D6 [20]): Not Active; Cp (Rattus norvegicus [21]): 100 mg/kg
21 | O=C(O)CCC(=O)NC[C@H]1CC[C@]2(CC1)OO[C@]1(O2)C2CC3CC(C2)CC1C3 | 71 (≈ 180 nM) | 97 (≈ 247 nM) | <40 | 
22 | CS(=O)(=O)O.NCC(=O)NC[C@H]1CC[C@]2(CC1)OO[C@]1(O2)C2CC3CC(C2)CC1C3 | 0.36 | 0.29 | 99.9 | Activity (Plasmodium berghei [9]): >99.9%; Activity (Plasmodium berghei [4]): 0%
23 | NC(=O)C(=O)NC[C@H]1CC[C@]2(CC1)OO[C@]1(O2)C2CC3CC(C2)CC1C3 | 0.44 (≈ 1.21 nM) | 0.71 (≈ 1.95 nM) | 99.5 | 
24 | Cc1ccc(S(=O)(=O)O)cc1.O=C(CNC1CC1)NC[C@H]1CC[C@]2(CC1)OO[C@]1(O2)C2CC3CC(C2)CC1C3 | 0.39 | 1.2 | 99.6 | 
25 | O=C(NC[C@H]1CC[C@]2(CC1)OO[C@]1(O2)C2CC3CC(C2)CC1C3)N1CCOCC1 |  |  | 98 | 
26 | CS(=O)(=O)O.O=C(NC[C@H]1CC[C@]2(CC1)OO[C@]1(O2)C2CC3CC(C2)CC1C3)C(=O)N1CCNCC1 | 0.69 | 0.54 | 99.9 | 
27 | O=C(NC[C@H]1CC[C@]2(CC1)OO[C@]1(O2)C2CC3CC(C2)CC1C3)c1ccncc1 | 2.2 (≈ 5.52 nM) | 1.1 (≈ 2.76 nM) | 99.5 | 
28 | CC(C)(N)C(=O)NC[C@H]1CC[C@]2(CC1)OO[C@]1(O2)C2CC3CC(C2)CC1C3 | 0.5 (≈ 1.32 nM) | 0.36 (≈ 0.951 nM) | 99.9 | Activity (Plasmodium berghei [9]): >99.9%; Activity (Plasmodium berghei [4]): 0%
29 | Cc1ccc(S(=O)(=O)O)cc1.NCCC(=O)NC[C@H]1CC[C@]2(CC1)OO[C@]1(O2)C2CC3CC(C2)CC1C3 |  |  | 99.9 | Activity (Plasmodium berghei [9]): >99.9%; Survival (Plasmodium berghei [8]): 20.8 days; Activity (Plasmodium berghei [4]): 0%
30 | CS(=O)(=O)CC(=O)NCC1CC[C@]2(CC1)OO[C@]1(O2)C2CC3CC(C2)CC1C3 (some centres not stated) |  |  | 99.2 | 
31 | CS(=O)(=O)O.O=C(NC[C@H]1CC[C@]2(CC1)OO[C@]1(O2)C2CC3CC(C2)CC1C3)c1c[nH]cn1 | 0.84 | 1.1 | 99.5 | 
32 | C[C@H]1[C@H](OC(=O)CCC(=O)O)O[C@@H]2O[C@@]3(C)CC[C@H]4[C@H](C)CC[C@@H]1[C@@]24OO3 [ARTESUNATE] |  |  | 67 | Activity (Plasmodium berghei [9]): 70%; Activity (Plasmodium berghei [4]): 0%; logD [16]: 3.5
33 | O=C(NC[C@H]1CC[C@]2(CC1)OO[C@]1(O2)C2CC3CC(C2)CC1C3)c1cccnc1 | 0.97 (≈ 2.43 nM) |  | 99.6 | 
34 | CC(C)(N)CNC(=O)C(=O)NC[C@H]1CC[C@]2(CC1)OO[C@]1(O2)C2CC3CC(C2)CC1C3.CS(=O)(=O)O | 0.4 | 0.54 | 99.9 | Activity (Plasmodium berghei [9]): >99.9%; Survival (Plasmodium berghei [8]): 22.8 days; Activity (Plasmodium berghei [4]): 0%
35 | O=C(CN1CCOCC1)NC[C@H]1CC[C@]2(CC1)OO[C@]1(O2)C2CC3CC(C2)CC1C3.O=C(O)/C=C\C(=O)O | 0.88 | 1.8 | 99 | logD [16]: 5
36 | CN1CCN(C(=O)NC[C@H]2CC[C@]3(CC2)OO[C@]2(O3)C3CC4CC(C3)CC2C4)CC1 | 0.2 (≈ 0.477 nM) | 0.34 (≈ 0.81 nM) | 99.9 | 
37 | Cc1ccc(S(=O)(=O)O)cc1.Cc1ccc(S(=O)(=O)O)cc1.O=C(CN1CCNCC1)NC[C@H]1CC[C@]2(CC1)OO[C@]1(O2)C2CC3CC(C2)CC1C3 | 0.59 | 1.4 | 99.7 | 
38 | O=C(NCC1CCC2(CC1)OOC1(O2)C2CC3CC(C2)CC1C3)c1ccccn1 (configuration not stated) |  | 1.1 (≈ 2.76 nM) | 99.6 | 
